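Values below derive from 48-hour exposures of cells grown in 96-well plates, with endpoints linearly interpolated between the two concentrations bracketing the appropriate inhibition level. Abbreviation: GI50, concentration required for 50% inhibition of growth. TGI: concentration producing complete growth inhibition.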
Each compound was assayed on MDA-MB-468 breast (assay: NCI tumour cell line growth inhibition, 48 h).
`CCN1C(=O)N(CC)C2C1NN=c1s/c(=C\c3cc4ccccc4[nH]3)c(=O)n12` (stereo not given) was tested, and the GI50 was less than 0.01 µM and the TGI was 8.52 µM.
Work on `CC1(C)CC[C@]2(C(=O)N3CCOCC3)CC[C@]3(C)C(=CC[C@@H]4[C@@]5(C)C/C(=C/c6ccncc6)C(=O)C(C)(C)[C@@H]5CC[C@]43C)[C@@H]2C1` yielded a GI50 of 0.712 µM and a TGI greater than 100 µM.
`CCNCCNc1cc(C2CCCCC2)c(C#N)c2nc3ccccc3n12` was tested, and the GI50 was 0.751 µM and the TGI was 2.1 µM.
Compound `COc1ccc(-c2nn(-c3cccc(Cl)c3)cc2-c2cc(-c3ccccc3)nc(N)n2)cc1` has a GI50 of 1.72 µM and a TGI of 3.59 µM.
For `COCCNc1cc(NC(=O)N2CCCc3cc(CN4CCN(C)CC4=O)c(C=O)nc32)ncc1C#N`, the GI50 was 26.5 µM and the TGI was greater than 50 µM.
In the case of `CC(C)(C#N)c1cc(C(=O)Nc2cc(Nc3ncccc3-c3ncnc4nc[nH]c34)ccc2F)cc(C(F)(F)F)c1`, the TGI is reported as greater than 4.09 µM.
For `Nc1nc(N)c(N=O)c(OCC2CCCCC2)n1`, the GI50 was 15.2 µM and the TGI was 52.9 µM.
In the case of `CN(C)CC1CCCCCC(CN(C)C)C1=O` (stereo not given), the GI50 is reported as 0.502 µM and the TGI is reported as 2.54 µM.
For `O=C(CN1CCN(c2ccccc2)CC1)N1CCN(c2nnc(-c3ccc(Cl)cc3)c(-c3ccc(Cl)cc3)n2)CC1`, the GI50 was 18.9 µM and the TGI was 95.3 µM.
With `FC(F)(F)c1ccc(-c2cnc(Cl)nc2NCc2cc(C(F)(F)F)cc(C(F)(F)F)c2)cc1` the GI50 was 2.06 µM and the TGI was 9.15 µM.
`O=C(OCCBr)c1ccc(Cl)c([N+](=O)[O-])c1` gave a GI50 of 1.9 µM and a TGI of 4.09 µM.
`COc1cc(C2CC(c3ccc(N(C)C)cc3)=NN2C(C)=O)cc(OC)c1OC` (stereo not given) gave a GI50 of 1.72 µM and a TGI greater than 100 µM.
`O=C(c1cccnc1)c1cc(-c2ccccn2)c(=O)n2ccccc12` gave a GI50 greater than 100 µM and a TGI greater than 100 µM.

Source: PubChem BioAssay (NCI)
